These results are taken from ChEMBL document CHEMBL5046256, “The discovery of potent small molecule cyclic urea activators of STING” (Eur J Med Chem, 2022).

By EC50 is commonly meant the concentration that produces a half-maximal response. A high value points to a less potent agent.

Type in all cases: cell-based
The test system of assay [1] is HEK-293T. In words: Agonist activity against human STING R232H variant transfected in HEK-293T cells co-expressing ISRE.ISG54 at 0.2 uM by luciferase reporter gene assay relative to control. To be noted: filed as agonist.
Assay [2] has as its system HEK-293T. Kind of assay: Agonist activity against human STING R232H variant transfected in HEK-293T cells co-expressing ISRE.ISG54 at 1 uM by luciferase reporter gene assay relative to control. (In general: In a reporter assay the amount or activity of a reporter protein is the signal.)
Assay [3] has as its system HEK-293T. In words: Agonist activity against human STING R232H variant transfected in HEK-293T cells co-expressing ISRE.ISG54 at 0.5 uM by luciferase reporter gene assay relative to control.
Assay [4] is described as follows: Agonist activity against human STING R232H variant transfected in HEK-293T cells co-expressing ISRE.ISG54 by luciferase reporter gene assay. The settings on record: Homo sapiens, HEK-293T.
The test system of assay [5] is HEK-293T. Kind of assay: Agonist activity against human STING R232H variant transfected in HEK-293T cells co-expressing ISRE.ISG54 at 5 uM by luciferase reporter gene assay relative to control.

As to `CC1c2ccc(C(=O)NCc3c(F)cc(F)cc3F)cc2N(Cc2cc(F)cc(F)c2)C(=O)N1C` (racemic), the Activity with HEK-293T [1] was 81%. The compound `CN1Cc2ccc(C(=O)NCc3ccccc3F)cc2N(Cc2c(F)cccc2Cl)C1=O` gave an Activity with HEK-293T [2] of 34%. In the assay with HEK-293T [2], `Cc1cc(CN2C(=O)N(C)Cc3ccc(C(=O)NCc4c(F)cc(F)cc4F)cc32)on1` had an Activity of 12%. For the compound `Cc1cc(CN2C(=O)N(C)C(C)c3ccc(C(=O)NCc4c(F)cc(F)cc4F)cc32)c(F)cn1` (stereo not drawn), the Activity in the assay with HEK-293T [3] (filed as agonist) stood at 64%. In the assay with HEK-293T [2] (filed as agonist), `CC1c2ccc(C(=O)NCc3c(F)cc(F)cc3F)cc2N(Cc2c(F)cccc2S(C)(=O)=O)C(=O)N1C` (stereo not drawn) yielded an Activity of 61%. `CN1Cc2ccc(C(=O)NCc3c(F)cc(F)cc3F)cc2N(Cc2c(F)cccc2C#N)C1=O` came in with an Activity in the assay on HEK-293T [2] of 15%. In the assay with HEK-293T [2] (filed as agonist), `CC1c2ccc(C(=O)NCc3c(F)cc(F)cc3F)cc2N(Cc2cc(C(N)=O)ccc2F)C(=O)N1C` (stereo not drawn) had an Activity of 71%. In turn, `CC1c2ccc(C(=O)NCc3c(F)cc(F)cc3F)cc2N(Cc2ccccc2F)C(=O)N1C` (stereo not drawn) displayed an Activity with HEK-293T [3] (filed as agonist) of 54%. Compound `CC1c2ccc(C(=O)NCc3c(F)cc(F)cc3F)cc2N(Cc2c(F)cccc2F)C(=O)N1C` (racemic) displayed an Activity in the assay with HEK-293T [2] (filed as agonist) of 64%. Regarding `CC1c2ccc(C(=O)NCc3c(F)cc(F)cc3F)cc2N(Cc2ccccc2)C(=O)N1C` (racemic), the results for the Activity in the assay on HEK-293T [2] (filed as agonist) and in the assay with HEK-293T [3] (filed as agonist) were 73% and 74%, respectively.

`Cc1cc(CN2C(=O)N(C)C(C)c3ccc(C(=O)NCc4c(F)cc(F)cc4F)cc32)on1` (stereo not drawn) registered an Activity in the assay with HEK-293T [3] of 6%. `Cc1ccc(F)c(CN2C(=O)N(C)C(C)c3ccc(C(=O)NCc4c(F)cc(F)cc4F)cc32)n1` (stereo not drawn): the Activity in the assay on HEK-293T [2] (filed as agonist) worked out at 60%. `Cc1ccc(Cl)c(CN2C(=O)N(C)Cc3ccc(C(=O)NCc4c(F)cc(F)cc4F)cc32)c1F`: the EC50 in assay [4] stood at 403 nM. The same compound displayed an Activity with HEK-293T [5] (filed as agonist) of 68%. Take `Cc1cc(CN2C(=O)N(C)C(C)c3ccc(C(=O)NCc4c(F)cc(F)cc4F)cc32)no1` (stereo not drawn): the Activity with HEK-293T [3] was found to be 6%. For `O=C(NCc1c(F)cc(F)cc1F)c1ccc2c(c1)N(Cc1cc(F)cc(F)c1)C(=O)N(C1CC1)C2`, the Activity in the assay with HEK-293T [5] came to 13%. For `CC1c2ccc(C(=O)NCc3c(F)cc(F)cc3F)cc2N(Cc2ccc(Cl)cc2F)C(=O)N1C` (stereo not drawn), in the assay on HEK-293T [2] (filed as agonist), the Activity was determined as 65%.
